Reference: patent US12344610B2, “APOL1 inhibitors and methods of use” (Maze Therapeutics, Inc., priority 2022, dated 2025)

Columns and labels:
APOL1 G2 = molecular target: T1, APOL1 G2 (Homo sapiens, UniProt O14791, DEL388-389); experiment: APOL1-mediated calcium transport (calcium influx) assay, HEK T-REx/GCaMP6f/APOL1 G2 K6.3 cells, FLIPR TETRA; type: cell-based; settings: prevention of calcium influx; geometric mean of at least 2 assay runs; † = average of a technical replicate from a single assay run
T1 construct: expressed in transfected cells; host or cells: HEK293 T-REx clonal line stably expressing GCaMP6f (HEK T-REx/GCaMP6f/APOL1 G2 K6.3), doxycycline induced
T1 sequence (O14791 with tags, fused parts or gaps DEL388-389): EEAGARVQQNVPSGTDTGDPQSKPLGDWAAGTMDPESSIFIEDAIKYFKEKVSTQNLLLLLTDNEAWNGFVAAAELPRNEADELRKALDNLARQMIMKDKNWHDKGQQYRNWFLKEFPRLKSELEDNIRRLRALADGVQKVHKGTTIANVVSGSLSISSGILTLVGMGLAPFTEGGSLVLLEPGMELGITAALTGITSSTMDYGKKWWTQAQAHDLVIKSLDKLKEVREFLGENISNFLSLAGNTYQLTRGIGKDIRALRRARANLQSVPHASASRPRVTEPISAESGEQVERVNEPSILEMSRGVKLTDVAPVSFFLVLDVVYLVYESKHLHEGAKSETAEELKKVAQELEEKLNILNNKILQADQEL
In short: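 A HEK293 T-REx clone stably expressing GCaMP6f had APOL1 G2 induced with doxycycline (20 ng/mL solution added) for 6 h. Cells were then washed into Ca2+-free Tyrode's buffer (pH 7.4) and preincubated with compounds (duplicate 8-point) for 10 min at room temperature. Ca2+ injection to 5 mM final produced FLIPR GCaMP fluorescence, giving AC50 for influx inhibition (geometric mean, ≥2 runs).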

[1] = system: HEK293 cells overexpressing APOL1 G2; experiment: APOL1 G2 HEK293 cell rescue assay (reversal of cell death caused by overexpression of APOL1); type: cell-based; settings: geometric mean of at least 2 assay runs, † = single assay run
In short: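 Each compound tested in duplicate wells on one plate per run, with values usually the geometric mean across at least two runs on different days, occasionally from one run only. Read-out: concentration giving half-maximal rescue of APOL1 G2 overexpression-induced death of HEK293 cells.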

[2] = Homo sapiens, HEK293, HEK293 overexpressing APOL1 G2

SMILES	AC50 (APOL1 G2) [nM]	EC50 [1, 2] [nM]	EC50 ([1]; HEK293 overexpressing APOL1 G2) [nM]
CS(=O)(=O)C1(c2ccc(OCCN3CCC4(CC3)C(=O)Nc3ccc(Cl)cc34)cc2)CC1 [Compound 102, 5-chloro-1′-{2-[4-(1-methanesulfonylcyclopropyl)phenoxy]ethyl}-1,2-dihydrospiro[indole-3,4′-piperidin]-2-one]	671	31.4	–
O=C1Nc2ccc(Cl)cc2C12CCN(CCOc1ccc(C3CCCS3(=O)=O)cc1)CC2 (single isomer, unassigned) [Compound 177, (R) or (S)-2-[4-(2-{5-chloro-2-oxo-1,2-dihydrospiro[indole-3,4′-piperidin]-1′-yl}ethoxy)phenyl]-1λ^6-thiolane-1,1-dione]	670	–	78.2
CC(c1c(F)cc(OCCN2CCC3(CC2)C(=O)Nc2ccc(C#N)cc23)cc1F)S(C)(=O)=O (centres unmarked) [Compound 137, 1′-{2-[3,5-difluoro-4-(1-methanesulfonylethyl)phenoxy]ethyl}-2-oxo-1,2-dihydrospiro[indole-3,4′-piperidine]-5-carbonitrile]	597	114	–
CS(=O)(=O)C1(c2ccc(OCCN3CCC4(CC3)C(=O)N(CC(F)(F)F)c3ccc(Cl)cc34)cc2)COC1 [Compound 185, 5-chloro-1′-{2-[4-(3-methanesulfonyloxetan-3-yl)phenoxy]ethyl}-1-(2,2,2-trifluoroethyl)-1,2-dihydrospiro[indole-3,4′-piperidin]-2-one]	993	113	–
CN=S(C)(=O)c1ccc(OCCN2CCC3(CC2)C(=O)Nc2ccc(C#N)cc23)cc1 (single isomer, unassigned) [Compound 151, (S) or (R)-1′-(2-{4-[methyl(methylimino)oxo-λ^6-sulfanyl]phenoxy}ethyl)-2-oxo-1,2-dihydrospiro[indole-3,4′-piperidine]-5-carbonitrile]	1740	397	–
CN=S(C)(=O)c1ccc(OCCN2CCC3(CC2)C(=O)Nc2ccc(C#N)cc23)cc1 (single isomer, unassigned) [Compound 152, (R) or (S)-1′-(2-{4-[methyl(methylimino)oxo-λ^6-sulfanyl]phenoxy}ethyl)-2-oxo-1,2-dihydrospiro[indole-3,4′-piperidine]-5-carbonitrile]	1820	–	405
Cc1cc(OCCN2CCC3(CC2)C(=O)Nc2ccc(Cl)cc23)cc(C)c1S(C)(=O)=O [Compound 129, 5-chloro-1′-[2-(4-methanesulfonyl-3,5-dimethylphenoxy)ethyl]-1,2-dihydrospiro[indole-3,4′-piperidin]-2-one]	352	24.6	–
O=C1CCc2cc(OCCN3CCC4(CC3)C(=O)Nc3ccc(Cl)cc34)ccc2N1CCO [Compound 162, 5-chloro-1′-(2-{[1-(2-hydroxyethyl)-2-oxo-1,2,3,4-tetrahydroquinolin-6-yl]oxy}ethyl)-1,2-dihydrospiro[indole-3,4′-piperidin]-2-one]	603	57.1	–
CN1C(=O)C2(CCN(CCOc3cc(F)c(C4(S(C)(=O)=O)COC4)c(F)c3)CC2)c2cc(C#N)ccc21 [Compound 189, 1′-{2-[3,5-difluoro-4-(3-methanesulfonyloxetan-3-yl)phenoxy]ethyl}-1-methyl-2-oxo-1,2-dihydrospiro[indole-3,4′-piperidine]-5-carbonitrile]	349	59.1	–
CN1C(=O)Cc2cc(OCCN3CCC4(CC3)C(=O)Nc3ccc(C#N)cc34)cc(F)c21 [Compound 169, 1′-{2-[(7-fluoro-1-methyl-2-oxo-2,3-dihydro-1H-indol-5-yl)oxy]ethyl}-2-oxo-1,2-dihydrospiro[indole-3,4′-piperidine]-5-carbonitrile]	1210	247	–
CC(c1ccc(OCCN2CCC3(CC2)C(=O)Nc2ccc(C#N)cc23)cc1)S(C)(=O)=O (single isomer, unassigned) [Compound 135, (R) or (S)-1′-{2-[4-(1-methanesulfonylethyl)phenoxy]ethyl}-2-oxo-1,2-dihydrospiro[indole-3,4′-piperidine]-5-carbonitrile]	763	–	211
CN=S(C)(=O)c1ccc(OCCN2CCC3(CC2)C(=O)Nc2ccc(C#N)cc23)cc1 (centres unmarked) [Compound 150, 1′-(2-{4-[methyl(methylimino)oxo-λ^6-sulfanyl]phenoxy}ethyl)-2-oxo-1,2-dihydrospiro[indole-3,4′-piperidine]-5-carbonitrile]	629	228	–
CS(=O)(=O)c1ccc(OCCN2CCC3(CC2)C(=O)Nc2ccc(C#N)cc23)cc1Cl [Compound 156, 1′-[2-(3-chloro-4-methanesulfonylphenoxy)ethyl]-2-oxo-1,2-dihydrospiro[indole-3,4′-piperidine]-5-carbonitrile]	468	55.9	–
N#Cc1ccc2c(c1)C1(CCN(CCOc3ccc4c(c3)CCC(=O)N4CC(F)F)CC1)C(=O)N2 [Compound 105, 1′-(2-{[1-(2,2-difluoroethyl)-2-oxo-1,2,3,4-tetrahydroquinolin-6-yl]oxy}ethyl)-2-oxo-1,2-dihydrospiro[indole-3,4′-piperidine]-5-carbonitrile]	392	40.7	–
CN1CCc2cc(OCCN3CCC4(CC3)C(=O)Nc3ccc(C#N)cc34)ccc2S1(=O)=O [Compound 154, 1′-{2-[(2-methyl-1,1-dioxo-3,4-dihydro-2H-1λ^6,2-benzothiazin-6-yl)oxy]ethyl}-2-oxo-1,2-dihydrospiro[indole-3,4′-piperidine]-5-carbonitrile]	869	67.1	–
CC(C)N1C(=O)Cc2cc(OCCN3CCC4(CC3)C(=O)Nc3ccc(Cl)cc34)ccc21 [Compound 145, 5-chloro-1′-(2-{[2-oxo-1-(propan-2-yl)-2,3-dihydro-1H-indol-5-yl]oxy}ethyl)-1,2-dihydrospiro[indole-3,4′-piperidin]-2-one]	465	50.4	–
CS(=O)(=O)C1(c2ccc(OCCN3CCC4(CC3)C(=O)Nc3ccc(C#N)cc34)cc2)CCC1 [Compound 181, 1′-{2-[4-(1-methanesulfonylcyclobutyl)phenoxy]ethyl}-2-oxo-1,2-dihydrospiro[indole-3,4′-piperidine]-5-carbonitrile]	656	44.5	–
CS(=O)(=O)C1(c2ccc(OCCN3CCC4(CC3)C(=O)N(CCO)c3ccc(Cl)cc34)cc2)COC1 [Compound 160, 5-chloro-1-(2-hydroxyethyl)-1′-{2-[4-(3-methanesulfonyloxetan-3-yl)phenoxy]ethyl}-1,2-dihydrospiro[indole-3,4′-piperidin]-2-one]	898	75.4	–
CS(=O)(=O)C1(c2c(F)cc(OCCN3CCC4(CC3)C(=O)Nc3ccc(Cl)cc34)cc2F)COC1 [Compound 136, 5-chloro-1′-{2-[3,5-difluoro-4-(3-methanesulfonyloxetan-3-yl)phenoxy]ethyl}-1,2-dihydrospiro[indole-3,4′-piperidin]-2-one]	800	22.4	–
CC1(Oc2ncc(OCCN3CCC4(CC3)C(=O)Nc3ccc(Cl)cc34)cn2)COC1 [Compound 172, 5-chloro-1′-[2-({2-[(3-methyloxetan-3-yl)oxy]pyrimidin-5-yl}oxy)ethyl]-1,2-dihydrospiro[indole-3,4′-piperidin]-2-one]	479	99.1	–
CC1(S(=O)(=O)c2ccc(OCCN3CCC4(CC3)C(=O)Nc3ccc(Cl)cc34)cn2)COC1 [Compound 158, 5-chloro-1′-[2-({6-[(3-methyloxetan-3-yl)sulfonyl]pyridin-3-yl}oxy)ethyl]-1,2-dihydrospiro[indole-3,4′-piperidin]-2-one]	845	65.7	–
N#Cc1ccc2c(c1)C1(CCN(CCOc3ccc(S(=O)(=O)C(F)F)cc3)CC1)C(=O)N2 [Compound 113, 1′-[2-(4-difluoromethanesulfonylphenoxy)ethyl]-2-oxo-1,2-dihydrospiro[indole-3,4′-piperidine]-5-carbonitrile]	524	83.6	–
Cn1c(=O)oc2cc(OCCN3CCC4(CC3)C(=O)Nc3ccc(C#N)cc34)ccc21 [Compound 132, 1′-{2-[(3-methyl-2-oxo-2,3-dihydro-1,3-benzoxazol-6-yl)oxy]ethyl}-2-oxo-1,2-dihydrospiro[indole-3,4′-piperidine]-5-carbonitrile]	492	153	–
C[C@@H](CN1CCC2(CC1)C(=O)Nc1ccccc12)Oc1ccc(S(C)(=O)=O)cc1 (single isomer, unassigned) [Compound 13]	< 587	3010	–
CS(=O)(=O)C1(c2ccc(OCCN3CCC4(CC3)C(=O)N(CC(F)(F)F)c3ccc(C#N)cc34)cc2)COC1 [Compound 184, 1′-{2-[4-(3-methanesulfonyloxetan-3-yl)phenoxy]ethyl}-2-oxo-1-(2,2,2-trifluoroethyl)-1,2-dihydrospiro[indole-3,4′-piperidine]-5-carbonitrile]	1280	498	–
